In patent US7807396B2, “Insulin degrading enzyme assays for treatment of alzheimer's disease” (University of Kentucky Research Foundation, priority 2000, dated 2010):

What was measured:
[1] = molecular target: T1, insulysin (Rattus norvegicus, UniProt P35559); assay: Insulysin activity with fluorogenic peptide Abz-[…]-EDDnp; assay type: biochemical; settings: increasing concentrations of the peptide
T1 construct: His6 (N); made in house; host or cells: Sf9 cells, baculovirus (pFASTBAC)
Protocol: Referring to FIG. 16, the effect of increasing the concentration of the peptide dynorphin B-9 on insulysin activity is shown. Insulysin activity was measured with the fluorogenic peptide Abz-[…]-EDDnp (SEQ ID No: 14) in the presence of increasing concentrations of the peptide. This peptide contains the fluorescent […] (Abz) which is internally quenched by the 2,4-dinitrophenyl moiety.
Referring to FIG. 17, the effect of increasing the concentration of several different peptides on insulysin activity is summarized. Insulysin activity was measured with the fluorogenic peptide Abz-[…]-EDDnp (SEQ ID NO: 14) in the presence of increasing concentrations of the peptide.

[2] = system: neprilysin mRNA; assay: In situ hybridization of neprilysin mRNA in hippocampus of ovariectomized rats; assay type: in vivo, rat; settings: 17β-estradiol pellets, 3 weeks
Excerpt: Using in situ hybridization we administered antisense probes for each of exons 1, 2, 3, and 4 (R1, R2, R3 and R4, respectively) to the brains of ovariectomized rats, some of which also received estrogen replacement therapy. Adult female Sprague-Dawley rats (approximate weight 300 grams) were used to study the effects of ovariectomy and estradiol supplementation on neprilysin expression levels and activity. In situ hybridization was used to measure neprilysin mRNA levels while a coupled chromogenic assay [Li, C. and Hersh, L. B. Neprilysin: Assay Methods, Purification and Characterization. Methods in Enzymology. 248, 253-263 (1995)] was used to measure neprilysin activity. […]
Images on autoradiographic film were analyzed with computer-aided densitometry (MCID-M1, Imaging Research, St. Catharines, Ontario, Canada). Optical density values of the [^14C] microscales were obtained and a correlating log-log linear least-squares fit was calculated (r^2>0.99). […] The optical density of each defined region was determined for the neuronal somal layer of area CA1 (stratum pyramidale), CA3 and dentate gyrus (stratum granulosum). Identification of brain regions was determined using the atlas of Paxinos and Watson (G. Paxinos, C. Watson, The rat Brain in Stereotaxic Coordinates, second Edition, Academic Press, Australia, 1986).

[3] = system: neprilysin; assay: Neprilysin enzyme activity in rat brain tissue lysates, two-step assay; assay type: in vivo; settings: 17β-estradiol pellets, 3 weeks
Protocol: Adult female Sprague-Dawley rats (approximate weight 300 grams) were used to study the effects of ovariectomy and estradiol supplementation on neprilysin expression levels and activity. […] Ovariectomy was performed at 13 weeks of age and sham-surgery was performed on littermate animals to provide a control group. For estrogen replacement groups, ovariectomized animals were implanted with 17β-estradiol pellets (Innovative Research of America, Sarasota, Fla., USA). Rats were killed 3 weeks later after implantation. The brains were rapidly removed, quickly frozen over dry ice, and stored at −80° C. until father processing. […] The brains were used either for in situ hybridization or for neprilysin activity measurements as noted above.
In this assay glutaryl-Ala-Phe-4-methoxy-2-naphthylamide is cleaved to glutaryl-Ala-Ala and Phe-4-methoxy-2-naphthylamide. An aminopetidase is then used to cleave the Phe-4-methoxy-2-naphthylamide releasing fluorescent 4-methoxy-2-naphthylamine which is quantified on a spectrofluorometer.
The tissue lysates were evaluated for neprilysin enzymatic activity using a two-step chromogenic assay. […] The 4-methoxy-2-naphthylamine was quantified spectrofluorimetrically at an excitation wavelength of 340 nm and an emission wavelength of 425 nm. […]

[4] = system: rat brain hippocampal neurons; assay: Hippocampal cell survival with Aβ1-42 with or without insulysin; assay type: cell-based
Excerpt: In order to determine whether the insulysin cleavage of Aβ peptides produces products which in themselves are neurotoxic, we conducted experiments using cultured primary hippocampal cells. […] An inactivated form of insulysin was used as a control.
Viable cells were detected by microscopy.
Neuronal survival was estimated as a function of time.

[5] = molecular target: T2, β-endorphin (Homo sapiens, UniProt P01189); assay: Insulysin activity determination, disappearance of β-endorphin by HPLC; assay type: biochemical; settings: 30 μM β-endorphin, 37° C.
T2 construct: Human β-endorphin1-31; purchased National Institute on Drug Abuse drug supply system
T2 sequence (P01189 237-267): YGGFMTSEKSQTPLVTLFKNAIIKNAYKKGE
Protocol: Materials. […] Solutions were prepared by dissolving the peptide in dimethylsulfoxide (DMSO) to give a stock concentration of 200 μM. The peptide stock was lyophilized and stored at −80° C. until use. The aggregation state of Aβ peptide stock solutions was checked by electron microscopy (Ray et al. (2000) Brain Res 853:344-351) and found to be predominantly, if not exclusively, monomeric. For the in vitro reactions with insulysin, a final concentration of 25 μM Aβ1-40 was obtained after bringing the lyophilized peptide into solution with double distilled water. […] Human β-endorphin1-31, obtained from the National Institute on Drug Abuse drug supply system, was dissolved in water to give a stock solution of 300 μM. Trifluoroacetic acid (Sigma Biochemicals, St. Louis, Mo.) was diluted into water to produce a 5% working solution.
Insulysin activity was assayed by measuring the disappearance of β-endorphin by isocratic reverse phase HPLC (Safavi et al. (1996) Biochemistry 1996 35:14318-14325). A 100 μl reaction mixture containing 40 mM potassium phosphate buffer, pH 7.2, 30 μM β-endorphin, and enzyme was incubated for 15 minutes at 37° C. […] The β-endorphin peak was detected by absorbance at 214 nm using a Waters 484 detector. The reaction was quantitated by measuring the decrease in the β-endorphin peak area.

[6] = system: primary rat cortical neurons; assay: Neuroprotection / neurotoxicity assay in primary rat cortical neurons; assay type: cell-based
Protocol: Neurotoxicity assays were performed as described by Estus et. al. (Estus et al. (1997) J Neurosci 17:7736-7745) using embryonic day 18 rat fetuses to establish primary rat cortical neuron cultures. Rat brain cortical cells were initially cultured in AM0 media for 3-5 hrs in 16 well chamber slides (Nalge Nunc International, Rochester, N.Y.) pre-coated with polyethyleneimine at a density of ˜1×10^5 cells per well. The culture was enriched in neurons by replacement of the AM0 media with Dulbecco's modified Eagle's medium (DMEM, Life Technologies, Rockville, Md.) containing 100 units/ml penicillin, 100 μg/ml streptomycin and 2% B27 serum supplement (Life Technologies, Rockville, Md.).
Cells were treated with Aβ peptides and then fixed with 4% paraformaldehyde for 15 min. at room temperature. After washing the cells with PBS they were then stained with Hoechst 33258 at 1 μg/ml for 10 minutes. Neurons were then visualized by fluorescence microscopy. Those cells with uniformly dispersed chromatin were scored as survivors, while those cells containing condensed chromatin were scored as non-survivors. Readings were typically taken in triplicate with a minimum of 250 neurons scored from each well. Cells treated as described above were visualized using a Nikon microscope equipped with a Hoffman modulation contrast lens. Statistical analysis was performed on the samples using ANOVA.
To test this, rat cortical neurons were treated with Aβ peptides in the presence and absence of insulysin. Preliminary experiments were performed to obtain a suitable Aβ peptide concentration that would show a significant cytotoxic effect, as there are batch to batch variations in the ability of the Aβ peptides to mediate cytotoxic effects on cells in culture.
The cell based assay using primary rat cortical neurons was used to determine whether the insulysin cleavage products of the Aβ peptides were themselves neurotoxic. Recombinant insulysin at concentrations ranging from 0.5 to 5000 ng was added simultaneously with the Aβ peptides to the cortical cultures.

[7] = molecular target: T3, pre-aggregated Aβ1-40 (Homo sapiens, UniProt P05067); assay: Degradation of pre-aggregated 125I-Aβ1-40 deposited onto synthetic amyloid; assay type: biochemical; settings: 24 hr incubation with 5 μg of insulysin
T3 construct: purchased Amersham (125I-Aβ); QCB/BioSource (synthaloid plates)
Excerpt: During the progression of Alzheimer's disease monomeric Aβ peptides are deposited onto senile plaques. To test whether insulysin is able to prevent the deposition of the Aβ1-40 peptide, a model system was used in which the deposition of radiolabeled Aβ1-40 onto a synthetic amyloid plaque (synthaloid) is followed (Esler et al. (1999) Methods Enzymol 309:350-74). […] We also conducted an experiment in which ^125I-Aβ1-40 was first deposited onto the synthetic amyloid and then treated with insulysin to see if the enzyme could degrade pre-aggregated Aβ1-40.

[8] = molecular target: T4, Aβ1-40 (Homo sapiens, UniProt P05067); assay: Rate of cleavage of Aβ1-40 by insulysin; assay type: biochemical; design: purchased Bachem (Torrance, Calif.); settings: 25 μM Aβ1-40
Protocol: Purified insulysin was incubated with 25 μM Aβ1-40 in 40 mM potassium phosphate buffer, pH 7.2, at 37° C. for 1 hour. The reaction products were loaded onto a C4 reverse phase HPLC column and products resolved using a linear gradient of 5 to 75% acetonitrile over 65 minutes. Products were detected by absorbance at 214 nm using a Waters 484 detector and individual product peaks were collected manually. Product analysis was also conducted on an intact reaction mixture in which products were not resolved by HPLC. Products were identified by matrix assisted laser desorption ionization time of flight mass spectrometry (MALDI-TOF-MS). The reaction of insulysin with Aβ1-42 was conducted in a similar manner with products identified by MALDI-TOF-MS directly from reaction mixtures.
Product peaks corresponding to cleavage at the His^13-His^14, His^14-Gln^15, Phe^19-Phe^20 and Phe^20-Ala^21 positions were observed.

[9] = molecular target: T4, Aβ1-40; assay: Aβ1-40 deposition assay onto synthetic amyloid (synthaloid); assay type: biochemical; design: purchased Amersham (125I-Aβ); QCB/BioSource (synthaloid plates)
Protocol: A protocol was used where amyloid beta 1-40 (Aβ1-40) is initially deposited onto a 96 well microtiter plate. Radioactive (^125I labeled) Aβ1-40 is then added to the wells of this plate where it further adds to the Aβ1-40 deposited. This mimics the deposition of Aβ1-40 seen in the brains of Alzheimer patients.
96 well plates were pre-coated with Aβ1-40. In the control, 100 pM of ^125I-Aβ1-40 was deposited onto the pre-deposited Aβ1-40 plaque for three hours (lane 1). insulysin was added at concentrations of 500 ng, 50 ng and 5 ng to the wells along with ^125I-Aβ1-40 for three hours (lanes 2 to 4).
Beta amyloid deposition assays were conducted as described by Esler et. al. (Esler et al. (1997) Nat Biotech 15:268-263). Briefly, 96 well microtiter plates pre-coated with aggregated amyloid β1-40 (QCB/Biosource, Hopkinton, Mass.) were additionally coated with 200 μl of a 0.1% bovine serum albumin solution in 50 mM Tris-HCl, pH 7.5 for 20 minutes to prevent non-specific binding. For measuring Aβ1-40 deposition in the presence or absence of insulysin, a 150 μl solution of 0.1 nM 125I labeled Aβ1-40 in 50 mM Tris-HCl, pH 7.5 was added to the pre-coated well and incubated for four hours. When added, insulysin (0.5 to 500 ng) was placed directly in the well at zero time. The reaction was stopped by washing off excess undeposited radiolabeled Aβ1-40 with 50 mM Tris-HCl, pH 7.5. The radiolabel deposited onto the washed well was counted in a gamma counter. In a variation of this protocol, insulysin was preincubated with ^125 I-Aβ1-40 for 60 minutes and then added to the deposition assay.
During the progression of Alzheimer's disease monomeric Aβ peptides are deposited onto senile plaques. To test whether insulysin is able to prevent the deposition of the Aβ1-40 peptide, a model system was used in which the deposition of radiolabeled Aβ1-40 onto a synthetic amyloid plaque (synthaloid) is followed (Esler et al. (1999) Methods Enzymol 309:350-74). […]

T1 sequence (P35559 whole entry): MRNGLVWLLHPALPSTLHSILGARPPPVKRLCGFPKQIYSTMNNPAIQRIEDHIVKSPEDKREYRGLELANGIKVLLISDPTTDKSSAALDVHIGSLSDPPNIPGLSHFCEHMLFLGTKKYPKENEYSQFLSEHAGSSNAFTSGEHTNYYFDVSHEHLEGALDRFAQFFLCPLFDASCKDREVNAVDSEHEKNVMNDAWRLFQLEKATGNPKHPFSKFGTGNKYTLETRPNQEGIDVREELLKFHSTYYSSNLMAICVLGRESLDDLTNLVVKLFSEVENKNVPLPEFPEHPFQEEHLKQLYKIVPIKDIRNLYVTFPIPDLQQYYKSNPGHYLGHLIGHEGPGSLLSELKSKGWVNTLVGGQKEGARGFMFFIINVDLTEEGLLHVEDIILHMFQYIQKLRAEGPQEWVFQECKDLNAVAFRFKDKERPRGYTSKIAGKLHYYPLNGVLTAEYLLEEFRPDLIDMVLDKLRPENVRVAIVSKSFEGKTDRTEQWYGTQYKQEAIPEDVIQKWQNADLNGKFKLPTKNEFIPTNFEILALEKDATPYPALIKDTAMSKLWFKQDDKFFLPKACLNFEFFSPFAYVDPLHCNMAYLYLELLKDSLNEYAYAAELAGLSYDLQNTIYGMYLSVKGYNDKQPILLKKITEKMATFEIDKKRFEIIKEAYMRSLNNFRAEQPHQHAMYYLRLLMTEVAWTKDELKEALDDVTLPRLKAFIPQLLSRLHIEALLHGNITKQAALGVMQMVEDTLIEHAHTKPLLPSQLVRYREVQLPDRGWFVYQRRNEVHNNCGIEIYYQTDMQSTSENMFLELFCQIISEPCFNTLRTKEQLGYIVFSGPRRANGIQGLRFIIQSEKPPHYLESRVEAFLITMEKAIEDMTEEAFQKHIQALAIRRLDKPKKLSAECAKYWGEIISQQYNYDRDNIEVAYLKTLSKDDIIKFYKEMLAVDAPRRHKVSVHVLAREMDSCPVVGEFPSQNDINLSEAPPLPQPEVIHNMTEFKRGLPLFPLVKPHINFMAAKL

## beta endorphin: peptide, insulysin substrate, found to increase insulysin enzymatic activity
[1]
  effect on insulysin activity: increase insulysin enzymatic activity

## C[C@]12CC[C@@H]3c4ccc(O)cc4CC[C@H]3[C@@H]1CC[C@@H]2O [estrogen, 17β-estradiol]
[2]
  expression of neprilysin mRNA in the hippocampus, higher than ovariectomized rats without estrogen: about 300%
[3]
  increase in neprilysin activity in the hippocampus over ovariectomized rats not treated with estrogen: ~30%

## dynorphin
[1]
  effect on insulysin activity: increase insulysin enzymatic activity

## insulysin: His6-tagged recombinant rat insulysin (insulin degrading enzyme) expressed in Sf9 cells with baculovirus, purified
[4]; 10 μM Aβ1-42 (initially monomeric), 400 ng insulin degrading enzyme, 24 hrs
  Aβ1-42 induced cell death of hippocampal cells: prevented Aβ1-42 induced cell death
[4]; insulysin added with 25 μM Aβ1-42, up to 12 hours
  neuronal survival: survival was close to that seen in the control untreated cells
[5]
  specific activity: 2.6 μmols/min/mg
[6]; 25 μM Aβ1-42, added simultaneously, 48 hrs
  amount effective in sparing the neurotoxic effects of Aβ1-42: 500 ng
[6]; 30 μM Aβ1-40, added simultaneously, 48 hrs
  amount effective in sparing the neurotoxic effects of Aβ1-40: 50 ng
[7]
  release of radioactivity from deposited 125I-Aβ1-40: no radioactivity was released
[8]
  rate of cleavage of Aβ1-40: 1.2 μmols/min/mg enzyme
[9]; 50 ng of insulysin, 100 pM 125I-Aβ1-40, three hours
  inhibition of deposition of 125I-Aβ1-40: 50%
[9]; insulysin added with 125I-Aβ1-40 (0.1 nM), 4 hr
  amount able to prevent the deposition of radiolabeled Aβ1-40: 50 ng
[9]; insulysin preincubated with 125I-Aβ1-40 for 60 minutes, 4 hr deposition
  amount able to prevent the deposition of radiolabeled Aβ1-40: 50 ng

## Aβ1-40: amyloid beta peptide 1-40 (SEQ ID NO: 12) obtained from Bachem [reference compound]
[6]; 30 μM Aβ1-40, 48 hrs
  loss of cortical neurons: approximately 70%
